Reference: PubChem BioAssay (NCI)
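All cell lines were grown in 96-well plates and treated with compound for 48 hours. Abbreviation: GI50, concentration required for 50% inhibition of growth. TGI is the concentration that stops growth completely.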

Experiments:
Experiment in all cases: NCI tumour cell line growth inhibition, 48 h
[1] = system: RXF 393 renal
[2] = system: SF-268 CNS
[3] = system: LXFL 529 NSCLC
[4] = system: A549 NSCLC
[5] = system: PC-3 prostate
[6] = system: OVCAR-8 ovarian
[7] = system: MCF7 breast
[8] = system: DU-145 prostate
[9] = system: OVCAR-4 ovarian
[10] = system: HL-60(TB) leukemia
[11] = system: SK-MEL-2 melanoma
[12] = system: MDA-MB-435
[13] = system: MALME-3M melanoma
[14] = system: T-47D breast
[15] = system: OVCAR-3 ovarian
[16] = system: SK-MEL-28 melanoma
[17] = system: LOX IMVI melanoma
[18] = system: NCI/ADR-RES ovarian
[19] = system: SK-MEL-5 melanoma
[20] = system: UACC-62 melanoma
[21] = system: MDA-MB-231 breast
[22] = system: SNB-78 CNS
[23] = system: NCI-H460 lung
[24] = system: A498 renal
[25] = system: SF-539 CNS
[26] = system: DMS 273 small cell lung
[27] = system: DLD-1 colon
[28] = system: CCRF-CEM leukemia
[29] = system: HT29 colon
[30] = system: UO-31 renal
[31] = system: HOP-62 NSCLC
[32] = system: HCC-2998 colon
[33] = system: XF 498 CNS
[34] = system: M19-MEL melanoma
[35] = system: DMS 114 small cell lung
[36] = system: HCT-15 colon
[37] = system: K-562 leukemia
[38] = system: EKVX NSCLC
[39] = system: HCT-116 colon
[40] = system: SK-OV-3 ovarian
[41] = system: COLO 205 colon
[42] = system: CAKI-1 renal
[43] = system: KM12 colon
[44] = system: 786-0 renal
[45] = system: RXF-631 renal
[46] = system: IGROV1 ovarian
[47] = system: NCI-H226 lung
[48] = system: SR leukemia
[49] = system: NCI-H522 lung
[50] = system: SF-295 CNS
[51] = system: HOP-92 NSCLC
[52] = system: SW-620 colon
[53] = system: SNB-19 CNS
[54] = system: OVCAR-5 ovarian
[55] = system: UACC-257 melanoma
[56] = system: SN12C renal
[57] = system: HS 578T breast
[58] = system: SNB-75 CNS
[59] = system: RPMI-8226 leukemia
[60] = system: TK-10 renal
[61] = system: ACHN renal
[62] = system: NCI-H23 lung
[63] = system: U251 CNS
[64] = system: MOLT-4 leukemia
[65] = system: M14 melanoma
[66] = system: KM20L2 colon
[67] = system: HOP-18 NSCLC

## CC(CN1CCN(CC(C)Nc2ccnc3cc(Cl)ccc23)CC1)Nc1ccnc2cc(Cl)ccc12 (configuration not stated)
[1]
  TGI: 14.7 µM
[2]
  TGI: > 36 µM
[3]
  TGI: 30.7 µM
[4]
  TGI: > 57 µM
[5]
  GI50: 3.04 µM
  TGI: 57.2 µM
[6]
  TGI: > 64 µM
[7]
  GI50: 8.29 µM
  TGI: > 100 µM
[8]
  GI50: 7.83 µM
  TGI: > 100 µM
[9]
  TGI: > 61.6 µM
[10]
  TGI: 19.3 µM
[11]
  GI50: 25.8 µM
  TGI: 62.7 µM
[12]
  GI50: 2.74 µM
  TGI: 9.38 µM
[13]
  TGI: 26.5 µM
[14]
  GI50: 35.2 µM
  TGI: 74.6 µM
[15]
  TGI: > 64.4 µM
[16]
  TGI: 10.4 µM
[17]
  TGI: 8.19 µM
[18]
  GI50: 83.6 µM
  TGI: > 100 µM
[19]
  TGI: 23.5 µM
[20]
  TGI: 32.5 µM
[21]
  GI50: 2.72 µM
  TGI: 7.52 µM
[22]
  TGI: 38 µM
[23]
  TGI: 14.3 µM
[24]
  TGI: > 56.8 µM
[25]
  TGI: 10.4 µM
[26]
  TGI: 29.8 µM
[27]
  TGI: 41.1 µM
[28]
  TGI: > 100 µM
[29]
  TGI: > 53.8 µM
[30]
  TGI: 30.7 µM
[31]
  TGI: > 63 µM
[32]
  TGI: 50.2 µM
[33]
  TGI: 37.9 µM
[34]
  TGI: 41.4 µM
[35]
  TGI: 41 µM
[36]
  TGI: 19.6 µM
[37]
  TGI: > 100 µM
[38]
  TGI: > 58.9 µM
[39]
  TGI: 12.9 µM
[40]
  TGI: 76.7 µM
[41]
  TGI: 31.8 µM
[42]
  TGI: > 100 µM
[43]
  TGI: > 51.8 µM
[44]
  TGI: 33.8 µM
[45]
  TGI: 25.3 µM
[46]
  GI50: 9.37 µM
  TGI: > 100 µM
[47]
  TGI: > 69.5 µM
[48]
  TGI: 7.45 µM
[49]
  TGI: 21.3 µM
[50]
  TGI: 51.2 µM
[51]
  GI50: 1.59 µM
  TGI: 13.2 µM
[52]
  GI50: 2.82 µM
  TGI: > 100 µM
[53]
  TGI: > 79.9 µM
[54]
  TGI: > 68.6 µM
[55]
  TGI: 29.5 µM
[56]
  TGI: > 71.6 µM
[57]
  GI50: 2.55 µM
  TGI: 9.69 µM
[58]
  TGI: 18.3 µM
[59]
  TGI: > 20.1 µM
[60]
  TGI: 49.2 µM
[61]
  TGI: 64.6 µM
[62]
  TGI: > 57 µM
[63]
  TGI: 42.2 µM
[64]
  TGI: > 100 µM
[65]
  TGI: 10.5 µM
[66]
  TGI: 26.9 µM

## CCOC(=O)c1[nH]c(CN(C)Cc2[nH]c(C(=O)OCC)c(C)c2C(=O)OCc2ccccc2)c(C(=O)OCc2ccccc2)c1C
[1]
  TGI: 22.3 µM
[2]
  TGI: > 100 µM
[3]
  TGI: > 100 µM
[4]
  TGI: 98.2 µM
[6]
  TGI: > 100 µM
[9]
  TGI: 32.1 µM
[10]
  TGI: > 100 µM
[13]
  TGI: > 100 µM
[15]
  TGI: 28.3 µM
[16]
  TGI: > 100 µM
[17]
  TGI: > 100 µM
[19]
  TGI: 22.2 µM
[20]
  TGI: 85.3 µM
[22]
  TGI: > 100 µM
[23]
  TGI: 62.2 µM
[24]
  TGI: 34.9 µM
[25]
  TGI: 21.3 µM
[26]
  TGI: 35 µM
[27]
  TGI: > 100 µM
[28]
  TGI: > 100 µM
[29]
  TGI: 8.01 µM
[30]
  TGI: > 100 µM
[31]
  TGI: 89.7 µM
[32]
  TGI: > 100 µM
[35]
  TGI: > 100 µM
[36]
  TGI: > 100 µM
[37]
  TGI: > 100 µM
[38]
  TGI: 42.5 µM
[39]
  TGI: 38 µM
[67]
  TGI: > 100 µM
[41]
  TGI: > 100 µM
[42]
  TGI: 23.8 µM
[43]
  TGI: 54.9 µM
[44]
  TGI: 36.2 µM
[45]
  TGI: 43.4 µM
[46]
  TGI: > 100 µM
[47]
  TGI: 32.7 µM
[48]
  TGI: > 100 µM
[49]
  TGI: 36.7 µM
[50]
  TGI: > 100 µM
[51]
  TGI: 8.73 µM
[52]
  TGI: > 100 µM
[53]
  TGI: 42.2 µM
[54]
  TGI: 44.8 µM
[55]
  TGI: > 100 µM
[56]
  TGI: 34.5 µM
[58]
  TGI: 19.3 µM
[60]
  TGI: 43.8 µM
[61]
  TGI: > 100 µM
[62]
  TGI: 42 µM
[63]
  TGI: 34 µM
[64]
  TGI: > 100 µM
[65]
  TGI: 29.1 µM
[66]
  TGI: 14.1 µM

## Cc1c2n(c3ccccc13)CC1CON(C)C21 (configuration not stated)
[2]
  TGI: > 100 µM
[3]
  TGI: > 100 µM
[9]
  TGI: > 100 µM
[10]
  TGI: > 100 µM
[11]
  TGI: > 100 µM
[13]
  TGI: > 100 µM
[16]
  TGI: > 100 µM
[20]
  TGI: > 100 µM
[22]
  TGI: > 100 µM
[25]
  TGI: > 100 µM
[26]
  TGI: > 100 µM
[27]
  TGI: > 100 µM
[28]
  TGI: > 100 µM
[30]
  TGI: > 100 µM
[31]
  TGI: > 100 µM
[32]
  TGI: > 100 µM
[34]
  TGI: > 100 µM
[35]
  TGI: > 100 µM
[37]
  TGI: > 100 µM
[39]
  TGI: > 100 µM
[40]
  TGI: > 100 µM
[41]
  TGI: > 100 µM
[42]
  TGI: > 100 µM
[44]
  TGI: > 100 µM
[45]
  TGI: > 100 µM
[46]
  TGI: > 100 µM
[47]
  TGI: > 100 µM
[48]
  TGI: > 100 µM
[49]
  TGI: > 100 µM
[51]
  TGI: > 100 µM
[58]
  TGI: > 100 µM
[59]
  TGI: > 100 µM
[62]
  TGI: > 100 µM
[64]
  TGI: > 100 µM
[65]
  TGI: > 100 µM
